# Measurements taken from patent US8207154B2, “Catatonic bacteriochlorophyll derivatives” (Yeda Research and Development Co., Ltd., priority 2005, dated 2012).
# Read-outs that look alike come from different tables or passages of the source.
# Tested on: H5V cells
# Assay: Phototoxicity assay (PDT efficacy at two incubation times), neutral red survival
# Assay type: cell-based, mouse
# Conditions: then 10 min illumination, 12 J/cm^2
# Protocol: H5V cells (40×10^3/well) were cultured in 96-well plates for 24 h to ˜80% confluence. To determine phototoxicity, the culture medium was replaced with 100 μl/well medium, in the absence or presence of 10^−8 to 10^−6 M sensitizer, and incubated in the dark for 15 min or 3 h in the culture incubator. The plates (PDT group) were then placed in the light field at room temperature and illuminated from the bottom for 10 min (800>λ>650 nm, 12 J/cm^2). After illumination, the medium was changed to fresh culture medium. The cultures were then placed in the culture incubator and cell survival was determined 24 h later, using the neutral red survival assay described below.
# Following 24 h post PDT the culture medium in the wells was replaced with 100 μl fresh medium containing 40 μg/ml neutral red. The plate was incubated for 1.5 h in a dark culture incubator. The medium was aspirated and the cells washed with 100 μl of solution containing 1% CaCl2 and 0.5% formaldehyde, which removes the unincorporated dye and fixes the cells to the substratum. The dye was then extracted from the cells into the supernatant upon addition of 100 μl 1% glacial acetic acid in 50% ethanol. After 1-2 min at room temperature, the optical density of the wells was determined in a microplate spectrophotometer using a 570 nm filter. After subtraction of assay blanks, net optical density was computed as the average value of triplicate determinations. Cell survival was calculated as the percent of the dye accumulated in the untreated control. To determine cell survival data was plotted against sensitizer concentration. These curves were then used to calculated LD50 values.
# Following synthesis, the compounds described in the Examples 23 to 75 above were purified, divided into equal aliquots and lyophilized for storage (desiccated at −20° C.). The exact material content was determined by HPLC-diode array detection, and the PDT efficacy was evaluated at two incubation times as described in the experimental section.
# [1] = 15 min incubation in the dark, read-out: IC50 15 min
# [2] = 3 h incubation in the dark, read-out: IC50 3 hours
SMILES,IC50 [1] [nM],IC50 [2] [nM]
"CCC1C2=Cc3c(C)c(C(=O)NCCNc4ccccn4)c4[n]3[Pd][n]3c(c(C)c(C(C)=O)c3=CC(=N2)C1C)=CC1=NC(=C4CC(=O)OC)C(CCC(=O)NCCNc2ccccn2)C1C (stereo not drawn) [Compound 44, Palladium 3^1-oxo-15-methoxycarbonylmethyl-Rhodobacteriochlorin-13^1,17^3-di(2-N-(2′-pyridyl)aminoethyl)amide]",1410,170
"CC[C@H]1C2=NC(=Cc3c(C(C)=O)c(C)c4[n]3[Pd][n]3c(c(C)c(C(=O)NCCN(CC)CC)c3=C(CC(=O)OC)C3=NC(=C4)[C@@H](C)[C@@H]3CCC(=O)NCCN(CC)CC)=C2)[C@@H]1C [Compound 45, Palladium 3^1-oxo-15-methoxycarbonylmethyl-Rhodobacteriochlorin-13^1, 17^3-di(2-N^2-diethylaminoethyl)amide]",200,180
"CC[C@H]1C2=NC(=Cc3c(C(C)=O)c(C)c4[n]3[Pd][n]3c(c(C)c(C(=O)NCC(O)CO)c3=C(CC(=O)OC)C3=NC(=C4)[C@@H](C)[C@@H]3CCC(=O)NCCN)=C2)[C@@H]1C (stereo partly drawn) [Compound 47, Palladium 3^1-oxo-15-methoxycarbonylmethyl-Rhodobacteriochlorin-13^1-(2,3-dihydroxypropyl)amide-17^3-(2-aminoethyl) amide]",450,250
"CCC1C2=Cc3c(C)c(C(=O)NCCN)c4[n]3[Pd][n]3c(c(C)c(C(C)=O)c3=CC(=N2)C1C)=CC1=NC(=C4CC(=O)OC)C(CCC(=O)NCC(O)CO)C1C (stereo not drawn) [Compound 48, Palladium 3^1-oxo-15-methoxycarbonylmethyl-Rhodobacteriochlorin-13^1-(2-aminoethyl)amide-17^3-(2,3-dihydroxypropyl) amide]",600,200
"CC[C@H]1C2=NC(=Cc3c(C(C)=O)c(C)c4[n]3[Pd][n]3c(c(C)c(C(=O)NCC(O)CO)c3=C(CC(=O)OC)C3=NC(=C4)[C@@H](C)[C@@H]3CCC(=O)NCCN(C)C)=C2)[C@@H]1C (stereo partly drawn) [Compound 49, Palladium 3^1-oxo-15-methoxycarbonylmethyl-Rhodobacteriochlorin-13^1-(2,3-dihydroxypropyl)amide-17^3-(2-N^2-dimethylaminoethyl)amide]",1150,570
"CC[C@H]1C2=NC(=Cc3c(C(C)=O)c(C)c4[n]3[Pd][n]3c(c(C)c(C(=O)NCCN(C)C)c3=C(CC(=O)OC)C3=NC(=C4)[C@@H](C)[C@@H]3CCC(=O)NCC(O)CO)=C2)[C@@H]1C (stereo partly drawn) [Compound 50, Palladium 3^1-oxo-15-methoxycarbonylmethyl-Rhodobacteriochlorin-13^1-(2-N^2-dimethylaminoethyl)amide-17^3-(2,3-dihydroxypropyl)amide]",470,170
"CC[C@H]1C2=NC(=Cc3c(C(C)=O)c(C)c4[n]3[Pd][n]3c(c(C)c(C(=O)NCC(O)CO)c3=C(CC(=O)OC)C3=NC(=C4)[C@@H](C)[C@@H]3CCC(=O)NCCNCCN)=C2)[C@@H]1C (stereo partly drawn) [Compound 51, Palladium 3^1-oxo-15-methoxycarbonylmethyl-Rhodobacteriochlorin-13^1-(2,3-dihydroxypropyl)amide-17^3-(2-[(2-aminoethyl)amino]ethyl)amide]",780,400
"CC[C@H]1C2=NC(=Cc3c(C(C)=O)c(C)c4[n]3[Pd][n]3c(c(C)c(C(=O)NCC(O)CO)c3=C(CC(=O)OC)C3=NC(=C4)[C@@H](C)[C@@H]3CCC(=O)NCCNCCN(CC)CC)=C2)[C@@H]1C (stereo partly drawn) [Compound 52, Palladium 3^1-oxo-15-methoxycarbonylmethyl-Rhodobacteriochlorin-13^1-(2,3-dihydroxypropyl)amide-17^3-(2-[(2-N^2-diethylaminoethyl)amino]ethyl)amide]",830,890
"CC[C@H]1C2=NC(=Cc3c(C(C)=O)c(C)c4[n]3[Pd][n]3c(c(C)c(C(=O)NCC(O)CO)c3=C(CC(=O)OC)C3=NC(=C4)[C@@H](C)[C@@H]3CCC(=O)NCCN3CCOCC3)=C2)[C@@H]1C (stereo partly drawn) [Compound 53, Palladium 3^1-oxo-15-methoxycarbonylmethyl-Rhodobacteriochlorin-13^1-(2,3-dihydroxypropyl)amide-17^3-(2-morpholino-N-ethyl)amide]",2000,900
"CC[C@H]1C2=NC(=Cc3c(C(C)=O)c(C)c4[n]3[Pd][n]3c(c(C)c(C(=O)NCC(O)CO)c3=C(CC(=O)OC)C3=NC(=C4)[C@@H](C)[C@@H]3CCC(=O)NCCN3CCNCC3)=C2)[C@@H]1C (stereo partly drawn) [Compound 54, Palladium 3^1-oxo-15-methoxycarbonylmethyl-Rhodobacteriochlorin-13^1-(2,3-dihydroxypropyl)amide-17^3-(2-piperazino-N-ethyl)amide]",750,270
"CC[C@H]1C2=NC(=Cc3c(C(C)=O)c(C)c4[n]3[Pd][n]3c(c(C)c(C(=O)NCCNCCN)c3=C(CC(=O)OC)C3=NC(=C4)[C@@H](C)[C@@H]3CCC(=O)NCC(O)CO)=C2)[C@@H]1C (stereo partly drawn) [Compound 55, Palladium 3^1-oxo-15-methoxycarbonylmethyl-Rhodobacteriochlorin-13^1-(2-[(2-aminoethyl)amino]ethyl)amide-17^3-(2,3-dihydroxypropyl)amide]",1070,430
"CC[C@H]1C2=NC(=Cc3c(C(C)=O)c(C)c4[n]3[Pd][n]3c(c(C)c(C(=O)NCC(O)CO)c3=C(CC(=O)OC)C3=NC(=C4)[C@@H](C)[C@@H]3CCC(=O)NCCNc3ccccn3)=C2)[C@@H]1C (stereo partly drawn) [Compound 56, Palladium 3^1-oxo-15-methoxycarbonylmethyl-Rhodobacteriochlorin-13^1-(2,3-dihydroxypropyl)amide-17^3-(2-N-(2′-pyridyl)aminoethyl)amide]",790,320
"CCC1C2=Cc3c(C)c(C(=O)NCCNc4ccccn4)c4[n]3[Pd][n]3c(c(C)c(C(C)=O)c3=CC(=N2)C1C)=CC1=NC(=C4CC(=O)OC)C(CCC(=O)NCC(O)CO)C1C (stereo not drawn) [Compound 57, Palladium 3^1-oxo-15-methoxycarbonylmethyl-Rhodobacteriochlorin-13^1-(2-N-(2′-pyridyl)aminoethyl)amide-17^3-(2,3-dihydroxypropyl)amide]",1330,600
"CC[C@H]1C2=NC(=Cc3c(C(C)=O)c(C)c4[n]3[Pd][n]3c(c(C)c(C(=O)NCC(O)CO)c3=C(CC(=O)OC)C3=NC(=C4)[C@@H](C)[C@@H]3CCC(=O)NCCN(CCN)CCN)=C2)[C@@H]1C (stereo partly drawn) [Compound 58, Palladium 3^1-oxo-15-methoxycarbonylmethyl-Rhodobacteriochlorin-13^1-(2,3-dihydroxypropyl)amide-17^3-([2-bis(2-aminoethyl)amino]ethyl)amide]",640,370
"CC(=O)O.CC(=O)O.CC(=O)O.CC[C@H]1C2=NC(=Cc3c(C(C)=O)c(C)c4[n]3[Pd][n]3c(c(C)c(C(=O)NCCN(CCN)CCN)c3=C(CC(=O)OC)C3=NC(=C4)[C@@H](C)[C@@H]3CCC(=O)NCC(O)CO)=C2)[C@@H]1C (stereo partly drawn) [Compound 59, Palladium 3^1-oxo-15-methoxycarbonylmethyl-Rhodobacteriochlorin-13^1-([2-bis(2-aminoethyl)amine]ethyl)amide-17^3-(2,3-dihydroxypropyl)amide]",450,190
